From patent US20250115591A1, “NOVEL SULFONAMIDE CARBOXAMIDE COMPOUNDS” (INFLAZOME LIMITED, priority 2017, published 2025)
Where a name gives a salt, the structure may show the parent alone. Read-outs that look alike come from different tables or passages of the source. One block for each molecule: values may come before it.

Columns and labels:
NLRP3 [1] = molecular target: T1, NLRP3 (Homo sapiens (Human), UniProt Q96P20); experiment: Human whole blood IL1β release assay (LPS + nigericin); type: cell-based
Method: For systemic delivery, the ability to inhibit NLRP3 when the compounds are present within the bloodstream is of great importance. For this reason, the NLRP3 inhibitory activity of a number of compounds in human whole blood was investigated in accordance with the following protocol.
Human whole blood in Li-heparin tubes was obtained from healthy donors from a volunteer donor panel. • 1. Plate out 80 μl of whole blood containing 1 μg/ml of LPS in 96-well, clear bottom cell culture plate (Corning #3585) • 2. Add 10 μl compound (8 points half-log dilution with 10 μM top dose) or vehicle (DMSO 0.1% FAC) to the appropriate wells • 3. Incubate for 3 hrs at 37° C., 5% CO2 • 4. Add 10 μl nigericin (Sigma #N7143) ([…]) to all wells • 5. Incubate for 1 hr at 37° C., 5% CO2 • 6. At the end of the incubation period, spin plates at 30×g for 5 mins to pellet cells and remove 20 μl of supernatant and add to 96-well v-bottom plates for IL-1β analysis (note: these plates containing the supernatants can be stored at −80° C. to be analysed at a later date) • 7. IL-1β was measured according to the manufacturer protocol (Perkin Elmer-AlphaLisa IL-Kit A[220F-5000) • 8. IC50 data is fitted to a non-linear regression equation (log inhibitor vs response-variable slope 4-parameters)

NLRP3 [2] = molecular target: T1, NLRP3; experiment: THP-1 cells pyroptosis assay (LPS + nigericin, resazurin read-out); type: cell-based; conditions: 1 μg/ml LPS, 5 μM nigericin
Procedure, shortened: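 LPS-primed (1 μg/ml) human THP-1 cells in serum-free RPMI were exposed to compound (8-point half-log series, top dose as printed "10M") for 3 h at 37 °C, then to nigericin 5 μM for 1 h. Remaining viability was read by resazurin (100 μM, 1-2 h) fluorescence, and IC50 came from 4-parameter variable-slope regression.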

[3] = PK, intravenous administration; type: in vivo, male Sprague Dawley rats; conditions: male, Sprague Dawley, rat
Method: Pharmacokinetic parameters were determined in male Sprague Dawley rats (Charles River, UK, 250-300 g; or Vital River Laboratory Animal Technology Co Ltd, Beijing, China, 7-9 weeks old). Animals were individually housed during the study and maintained under a 12 h light/dark cycle. Animals had free access to food and water except that orally dosed animals were food deprived overnight prior to the study. For intravenous administration, compounds were formulated as a solution in water or DMSO:PBS [10:90] in 2 mL/kg dosing volume and administered via tail vein. For oral administration, compounds were formulated as a solution in water or DMSO:water [10:90] in 5 mL/kg dosing volume and administered orally. Serial blood samples (about 120-300 μL) were taken from each animal at each of 8 time-points post dose (0.083, 0.25, 0.5, 1, 2, 4, 8 and 24 h). Samples were held on ice for no longer than 30 minutes before centrifugation (10,000 rpm (8,385 g) for 3 minutes; or 5,696 rpm (3,000 g) for 15 minutes) for plasma generation. Plasma was frozen on dry ice prior to bioanalysis. PK parameters were generated from LC-MS/MS data using Dotmatics or Phoenix WinNonlin 6.3 software.

[4] = human whole blood, 1 μg/ml LPS, nigericin, IL-1β release, read-out: HWB IC50
[5] = plasma, intravenous, dose 1 mg/kg, read-out: AUC
[6] = plasma, intravenous, dose 1 mg/kg, read-out: Cl
[7] = plasma, intravenous, dose 1 mg/kg, read-out: T1/2 (converted)
[8] = plasma, intravenous, dose 1 mg/kg, read-out: Vdss

T1 sequence (Q96P20 whole entry): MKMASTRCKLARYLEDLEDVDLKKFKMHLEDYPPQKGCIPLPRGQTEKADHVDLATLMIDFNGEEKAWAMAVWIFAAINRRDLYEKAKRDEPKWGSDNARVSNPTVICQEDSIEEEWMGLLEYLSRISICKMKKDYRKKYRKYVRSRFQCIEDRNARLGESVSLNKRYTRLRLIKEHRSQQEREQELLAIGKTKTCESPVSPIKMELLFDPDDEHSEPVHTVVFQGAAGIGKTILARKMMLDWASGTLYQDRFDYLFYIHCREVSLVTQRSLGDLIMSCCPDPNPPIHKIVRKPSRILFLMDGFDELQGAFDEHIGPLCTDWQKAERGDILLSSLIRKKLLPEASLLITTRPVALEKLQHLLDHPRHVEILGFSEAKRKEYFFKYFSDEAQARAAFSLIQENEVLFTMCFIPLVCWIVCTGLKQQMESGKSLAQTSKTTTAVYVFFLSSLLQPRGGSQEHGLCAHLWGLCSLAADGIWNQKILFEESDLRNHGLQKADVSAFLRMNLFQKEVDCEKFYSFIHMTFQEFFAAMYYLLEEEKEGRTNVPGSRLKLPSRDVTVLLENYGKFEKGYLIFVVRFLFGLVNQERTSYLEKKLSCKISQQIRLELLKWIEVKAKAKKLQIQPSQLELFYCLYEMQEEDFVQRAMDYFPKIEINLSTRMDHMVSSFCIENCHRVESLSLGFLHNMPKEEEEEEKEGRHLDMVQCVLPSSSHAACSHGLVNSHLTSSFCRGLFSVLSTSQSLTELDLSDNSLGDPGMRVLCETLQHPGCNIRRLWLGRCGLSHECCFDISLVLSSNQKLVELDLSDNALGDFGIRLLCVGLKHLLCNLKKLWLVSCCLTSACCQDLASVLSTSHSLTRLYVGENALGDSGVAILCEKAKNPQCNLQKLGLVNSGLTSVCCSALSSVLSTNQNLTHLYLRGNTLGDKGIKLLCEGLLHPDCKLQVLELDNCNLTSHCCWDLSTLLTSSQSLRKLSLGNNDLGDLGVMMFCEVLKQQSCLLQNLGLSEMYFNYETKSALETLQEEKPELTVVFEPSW

IC50 (NLRP3 [1]; [4]): 1000 to 10000 nM
IC50 (NLRP3 [2]): 1000 to 10000 nM
SMILES: C#CCN1CCC(S(=O)(=O)NC(=O)Nc2c3c(cc4c2CCC4)CCC3)CC1 [Example 2, N-((1,2,3,5,6,7-Hexahydro-s-indacen-4-yl)carbamoyl)-1-(prop-2-yn-1-yl)piperidine-4-sulfonamide, potassium salt]

IC50 (NLRP3 [1]; [4]): 1000 to 10000 nM
IC50 (NLRP3 [2]): 1000 to 10000 nM
SMILES: O=C(Nc1c2c(cc3c1CCC3)CCC2)NS(=O)(=O)C1CCNCC1 [Example 4, N-((1,2,3,5,6,7-Hexahydro-s-indacen-4-yl)carbamoyl)-piperidine-4-sulfonamide, potassium salt]

IC50 (NLRP3 [1]; [4]): 1000 to 10000 nM
IC50 (NLRP3 [2]): < 1000 nM
SMILES: CC(C)NC(=O)N1CCC(S(=O)(=O)NC(=O)Nc2c3c(cc4c2CCC4)CCC3)CC1 [Example 5, 4-(N-((1,2,3,5,6,7-Hexahydro-s-indacen-4-yl)carbamoyl)sulfamoyl)-N-isopropylpiperidine-1-carboxamide, potassium salt]

SMILES: O=C(Nc1c2c(cc3c1CCC3)CCC2)NS(=O)(=O)C1CCN(C(=O)C2CC2)CC1 [Example 7, 1-(Cyclopropanecarbonyl)-N-((1,2,3,5,6,7-hexahydro-s-indacen-4-yl)carbamoyl)piperidine-4-sulfonamide, potassium salt]
IC50 (NLRP3 [1]; [4]): 1000 to 10000 nM
IC50 (NLRP3 [2]): < 1000 nM

IC50 (NLRP3 [1]; [4]): < 1000 nM
IC50 (NLRP3 [2]): 1000 to 10000 nM
SMILES: O=C(Nc1c2c(cc3c1CCC3)CCC2)NS(=O)(=O)C1CCN(C(=O)C(F)(F)F)CC1 [Example 8, N-((1,2,3,5,6,7-Hexahydro-s-indacen-4-yl)carbamoyl)-1-(2,2,2-trifluoroacetyl)piperidine-4-sulfonamide, potassium salt]

SMILES: COC(=O)N1CCC(S(=O)(=O)NC(=O)Nc2c3c(cc4c2CCC4)CCC3)CC1 [Example 13, Methyl 4-(N-((1,2,3,5,6,7-hexahydro-s-indacen-4-yl)carbamoyl)sulfamoyl)piperidine-1-carboxylate, potassium salt]
IC50 (NLRP3 [1]; [4]): > 10000 nM
IC50 (NLRP3 [2]): < 1000 nM

AUC [3, 5]: 1530 ng·h/mL
clearance [3, 6]: 10.9 mL/min/kg
half-life [3, 7]: 0.9 h
Vd [3, 8]: 0.42 L/kg
SMILES: O=C(Nc1c2c(cc3c1CCC3)CCC2)NS(=O)(=O)C1CN(C2CCC2)C1 [Example 18, 1-Cyclobutyl-N-((1,2,3,5,6,7-hexahydro-s-indacen-4-yl)carbamoyl)azetidine-3-sulfonamide, potassium salt]

AUC ([3]; plasma, intravenous, dose 1.46 mg/kg, read-out: AUC): 2250 ng·h/mL
clearance ([3]; plasma, intravenous, dose 1.46 mg/kg, read-out: Cl): 10.8 mL/min/kg
half-life ([3]; plasma, intravenous, dose 1.46 mg/kg, read-out: T1/2 (converted)): 2.1 h
Vd ([3]; plasma, intravenous, dose 1.46 mg/kg, read-out: Vdss): 0.59 L/kg
SMILES: CCN1CCC(S(=O)(=O)NC(=O)Nc2c3c(cc4c2CCC4)CCC3)C1 (centres unmarked) [Example 37, 1-Ethyl-N-((1,2,3,5,6,7-hexahydro-s-indacen-4-yl)carbamoyl) pyrrolidine-3-sulfonamide, potassium salt]

SMILES: CC(C)N1[C@@H]2CC[C@H]1C[C@@H](S(=O)(=O)NC(=O)Nc1c3c(cc4c1CCC4)CCC3)C2 [Example 45, (1R*,3R*,5S*)—N-((1,2,3,5,6,7-Hexahydro-s-indacen-4-yl)carbamoyl)-8-isopropyl-8-azabicyclo[3.2.i]octane-3-sulfonamide, potassium salt]
AUC ([3]; in vivo, iv, 0.66 mg/kg): 703 ng·h/mL
Vd ([3]; in vivo, iv, 0.66 mg/kg): 2.06 L/kg
clearance ([3]; in vivo, iv, 0.66 mg/kg): 15.6 mL/min/kg
half-life ([3]; in vivo, iv, 0.66 mg/kg): 3.3 h

SMILES: CCN1[C@@H]2CC[C@H]1C[C@H](S(=O)(=O)NC(=O)Nc1c3c(cc4c1CCC4)CCC3)C2 [Example 70, N-((1,2,3,5,6,7-Hexahydro-s-indacen-4-yl)carbamoyl)-8-ethyl-8-azabicyclo[3.2.1]octane-3-sulfonamide exo isomers, potassium salt]
AUC ([3]; in vivo, iv, 1.86 mg/kg): 2550 ng·h/mL
Vd ([3]; in vivo, iv, 1.86 mg/kg): 0.53 L/kg
clearance ([3]; in vivo, iv, 1.86 mg/kg): 12.1 mL/min/kg
half-life ([3]; in vivo, iv, 1.86 mg/kg): 1.7 h

IC50 (NLRP3 [1]; [4]): 1000 to 10000 nM
SMILES: O=C(Nc1c2c(cc3c1CCC3)CCC2)NS(=O)(=O)C1CN(Cc2ccccc2)C1 [Example 72, 1-Benzyl-N-((1,2,3,5,6,7-hexahydro-s-indacen-4-yl)carbamoyl) azetidine-3-sulfonamide, potassium salt]

SMILES: O=C(Nc1c2c(cc3c1CCC3)CCC2)NS(=O)(=O)C1CN(CCCl)C1 [Example 92, 1-(2-Chloroethyl)-N-((1,2,3,5,6,7-hexahydro-s-indacen-4-yl)carbamoyl)azetidine-3-sulfonamide, potassium salt]
IC50 (NLRP3 [1]): 1000 to 10000 nM

IC50 (NLRP3 [1]; [4]): 1000 to 10000 nM
SMILES: [N-]=[N+]=NCCN1CC(S(=O)(=O)NC(=O)Nc2c3c(cc4c2CCC4)CCC3)C1 [Example 95, 1-(2-Azidoethyl)-N-((1,2,3,5,6,7-hexahydro-s-indacen-4-yl)carbamoyl)azetidine-3-sulfonamide, potassium salt]

AUC [3, 5]: 1670 ng·h/mL
clearance [3, 6]: 10 mL/min/kg
half-life [3, 7]: 0.6 h
Vd [3, 8]: 0.42 L/kg
SMILES: O=C(Nc1c2c(cc3c1CCC3)CCC2)NS(=O)(=O)C1CN(C2CCCC2)C1 [Example 99, 1-Cyclopentyl-N-((1,2,3,5,6,7-hexahydro-s-indacen-4-yl)carbamoyl)azetidine-3-sulfonamide, potassium salt]

IC50 (NLRP3 [1]; [4]): 1000 to 10000 nM
SMILES: O=C(Nc1c2c(cc3c1CCC3)CCC2)NS(=O)(=O)C1CN(Cc2cncnc2)C1 [Example 125, N-((1,2,3,5,6,7-Hexahydro-s-indacen-4-yl)carbamoyl)-1-(pyrimidin-S-ylmethyl)azetidine-3-sulfonamide, potassium salt]

AUC [3, 5]: 1520 ng·h/mL
clearance [3, 6]: 11 mL/min/kg
half-life [3, 7]: 1 h
Vd [3, 8]: 0.31 L/kg
SMILES: COc1cc(-c2ccc3c(c2NC(=O)NS(=O)(=O)c2cn(C(C)C)c(=O)cn2)CCC3)ccn1 [Example 156, 4-Isopropyl-N-((5-(2-methoxypyridin-4-yl)-2,3-dihydro-11H-inden-4-yl)carbamoyl)-S-oxo-4,5-dihydropyrazine-2-sulfonamide]

IC50 (NLRP3 [2]): 1000 to 10000 nM
SMILES: CC(C)n1ccc(S(=O)(=O)NC(=O)Nc2c3c(cc4c2CCC4)CCC3)cc1=O [Example 180, N-((1,2,3,5,6,7-Hexahydro-s-indacen-4-yl)carbamoyl)-1-isopropyl-2-oxo-1,2-dihydropyridine-4-sulfonamide, sodium salt]

IC50 (NLRP3 [2]): 1000 to 10000 nM
SMILES: CC(C)n1cccc(S(=O)(=O)NC(=O)Nc2c3c(cc4c2CCC4)CCC3)c1=O [Example 182, N-((1,2,3,5,6,7-Hexahydro-s-indacen-4-yl)carbamoyl)-1-isopropyl-2-oxo-1,2-dihydropyridine-3-sulfonamide]

IC50 (NLRP3 [2]): 1000 to 10000 nM
SMILES: CN(C)CCn1cc(S(=O)(=O)NC(=O)Nc2c3c(cc4c2CCC4)CCC3)ccc1=O [Example 184, 1-(2-(Dimethylamino)ethyl)-N-((1,2,3,5,6,7-hexahydro-s-indacen-4-yl)carbamoyl)-6-oxo-1,6-dihydropyridine-3-sulfonamide]

SMILES: CCN1CCC(S(=O)(=O)NC(=O)Nc2c(-c3ccnc(OC)c3)ccc3c2CCC3)CC1 [Example 188, 1-Ethyl-N-((5-(2-methoxypyridin-4-yl)-2,3-dihydro-1H-inden-4-yl)carbamoyl)piperidine-4-sulfonamide, potassium salt]
IC50 (NLRP3 [2]): 1000 to 10000 nM

IC50 (NLRP3 [1]; [4]): 1000 to 10000 nM
SMILES: CCN1CCC(S(=O)(=O)NC(=O)Nc2c3c(cc4c2CCC4)CC=C3)CC1 [Example 189, 1-Ethyl-N-((1,2,3,7-tetrahydro-s-indacen-4-yl)carbamoyl) piperidine-4-sulfonamide, potassium salt]

IC50 (NLRP3 [2]): 1000 to 10000 nM
SMILES: CCN1CCC(S(=O)(=O)NC(=O)Nc2c(-c3ccnc(C#N)c3)ccc3c2CCC3)CC1 [Example 190, N-((5-(2-Cyanopyridin-4-yl)-2,3-dihydro-1H-inden-4-yl)carbamoyl)-1-ethylpiperidine-4-sulfonamide, potassium salt]

SMILES: CN1CCCC(S(=O)(=O)NC(=O)Nc2c3c(cc4c2CCC4)CCC3)CC1 (centres unmarked) [Example 195, N-((1,2,3,5,6,7-hexahydro-s-indacen-4-yl)carbamoyl)-1-methylazepane-4-sulfonamide, potassium salt]
IC50 (NLRP3 [2]): < 1000 nM
